The source of these data is patent US8273788B2, “Five-membered iminocyclitol derivatives as selective and potent glycosidase inhibitors: new structures for antivirals and osteoarthritis therapeutics” (Academia Sinica, Taiwan, priority 2005, dated 2012).

For series [1], the target named is N-acetyl-β-hexosaminidase. Briefly: N-acetyl-β-hexosaminidase inhibition assay (in situ screen, IC50, Ki). As to conditions: for IC50: pure compound, read-out: N-acetyl-β-hexosaminidse IC50; for N-acetyl-β-hexosaminidse Inhibition (%): reaction product at 30 μM, in situ screening. It counts as biochemical, jack bean. Here is the method: (§1) A mixture of iminocyclitol 4, a carboxylic acid (1 equiv, Scheme 2), diisopropyl ethylamine (DIEA, 2.2 equiv), and (1H-benzotriazole-1-yl)-1,1,3,3-tetramethyl-uronium hexafluorophosphate (HBTU, 1.1 equiv) in DMSO was shaken in 96-well microtiter plates for 5 h. Crude reaction products were randomly selected (30%) and analyzed by ESI-MS to ensure the presence of the desired products. The reaction mixture was diluted by appropriate buffer solutions and transferred to another 96-well microtiter plate for screening directly without any purification. […] Assuming the amide formation is complete, the percentage of inhibition relative to the control was calculated on the basis of absorbance at 405 nm for p-nitrophenol released from their corresponding substrates.
(§2) Enzyme assay. General procedure for the assay with various glycosidases. The initial velocities of the hydrolysis were measured spectrophotometrically at various concentrations of p-nitrophenyl-glycopyranoside (4 mM, 2 mM, 1 mM, 0.5 mM, 0.25 mM, 0.125 mM, 0.0625 mM) at 405 nm using Bio Assay Reader (Perkin Elmer HTS 7000 Plus) at 30° C. The obtained data were fitted into the Michaelis-Menten equation by using the Kaleida Graph program to determine the apparent Km values. […] The assays performed in wells of the microtiter plate contained either sodium phosphate buffer (50 mM, pH 7, for α- and β-glucosidase, α- and β-galactosidase, α- and β-mannosidase, α-fucosidase), or Mcllvaine's buffer (25 mM, pH 6, N-acetyl-β-hexosaminidase, jack bean).
(§3) The secondary plot was generated by plotting the apparent Km values as a function of inhibitor concentrations. Ki was calculated from the negative value of the x-intercept of this plot.

For series [2], the target named is human N-acetyl-β-hexosaminidases. The following applies: previous study [30]; cited from earlier work.
The target of the next series is T1, α-glucosidase (Saccharomyces cerevisiae, UniProt P53341).
T1 construct: purchased Sigma Co. (St. Louis, Mo.); host or cells: baker's yeast
T1 sequence (P53341 whole entry): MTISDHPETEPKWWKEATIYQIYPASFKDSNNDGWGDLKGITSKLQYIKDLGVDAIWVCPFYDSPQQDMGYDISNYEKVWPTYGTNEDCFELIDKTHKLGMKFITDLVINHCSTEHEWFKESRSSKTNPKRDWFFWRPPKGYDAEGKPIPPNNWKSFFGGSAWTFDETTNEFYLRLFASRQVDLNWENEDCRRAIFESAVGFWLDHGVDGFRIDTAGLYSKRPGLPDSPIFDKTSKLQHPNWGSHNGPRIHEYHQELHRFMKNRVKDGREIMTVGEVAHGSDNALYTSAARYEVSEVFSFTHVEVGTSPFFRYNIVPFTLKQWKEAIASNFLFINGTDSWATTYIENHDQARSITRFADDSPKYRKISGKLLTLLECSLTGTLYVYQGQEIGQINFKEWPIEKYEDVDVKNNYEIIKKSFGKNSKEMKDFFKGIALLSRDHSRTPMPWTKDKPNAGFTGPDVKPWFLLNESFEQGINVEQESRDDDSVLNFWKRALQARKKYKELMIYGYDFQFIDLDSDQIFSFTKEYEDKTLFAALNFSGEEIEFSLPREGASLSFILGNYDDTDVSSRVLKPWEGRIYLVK
Description: α-glucosidase inhibition assay (in situ screen, IC50, Ki). As to conditions: for IC50: pure compound. It counts as biochemical, baker's yeast. Here is the method: as §1
General procedure for coupling reactions and in situ screening. To a DMSO solution (10 μL) in each well of a 96-well microtiter plate was added each carboxylic acid (10 μL from a 10 mm stock solution in DMSO, 0.1 μmol), HBTU (10 μL from a 11 mm stock solution in DMSO, 1.1 equiv, 0.11 μmol), and DIEA (10 μL from a 22 mM stock solution in DMSO, 2.2 equiv, 0.22 μmol).
as §2, §3

A further series concerns the target β-glucosidase. Briefly: β-glucosidase inhibition assay (in situ screen, IC50, Ki). As to conditions: for IC50: pure compound; for β-glucosidase Inhibition (%): reaction product at 20 μM, in situ screening. Format: biochemical, almonds. Here is the method:
as §1, §2, §3

Series [3] has as its system Japanese encephalitis virus (JEV). Description: Anti-JEV cell-based assay (plaque forming assay, BHK-21 cells). The following applies: for inhibition of JEV infection: at 50 and 100 μM; for IC50: read-out: JEV IC50; for IC50 / IC90: M.O.I. = 0.1, virus production, BHK-21 cells; for IC90: read-out: JEV IC90.
Series [4] relates to dengue virus serotype 2 (DEN-2). Description: Anti-DEN-2 cell-based assay (plaque forming assay, BHK-21 cells). The following applies: for inhibition of DEN-2 infection: at 50 and 100 μM; for IC50: read-out: DEN IC50; for IC50 / IC90: M.O.I. = 0.1, virus production, BHK-21 cells; for IC90: read-out: DEN IC90.
Another series concerns SARS-CoV. Format: cell-based, SARS-CoV (H. K. strain). The following applies: Vero E6 cells.
The next series has as its system BHK-21 cells. Briefly: XTT cell viability assay. Format: cell-based. The following applies: 10 μM, FIG. 2A. The method, then:
XTT assay. To determine cell viability, a colorimetric XTT-based assay was performed (Cell Proliferation Kit II; Roche). BHK-21 cells in a 96-well plate were incubated with various concentrations of inhibitors for 2 days before the XTT labeling reagent was added to the culture medium. Cells were incubated at 37° C. for about 30 min and then read by an enzyme-linked immunosorbent assay (ELISA) reader at 450 nm (Molecular Devices).
(In general: Tetrazolium assays rely on reduction of a dye to a coloured formazan, in cell work by metabolically active cells.)

Series [5] deals with human chondrosarcoma cells. As to conditions: cell-associated fraction and culture supernatant; previous study; cited from earlier work.
Series [6] deals with human placenta N-acetyl-β-hexosaminidase. Briefly: Kinetic analysis of human placenta β-hexosaminidase. Format: biochemical. The following applies: substrate 4-MU-GNAc, pH 4.5. Here is the method: Our strategy began with reductive amination of compound 5 with aldehydes of different lengths to give compounds 43-49 (FIG. 4). The intermediates were either deprotected under acidic conditions or hydrogenolysed to give primary amines 50-56. […] Thus, the inhibition studies of compounds 51-56 against human placenta N-acetyl-β-hexosaminidase were carried out. 4-Methylumbelliferyl N-acetyl-β-D-glucosaminide (4-MU-GNAc) was used as the substrate. The apparent Km and Vmax values for each substrate were calculated from the Lineweaver-Burke double reciprocal plot of [1/v]/[1/S]. The Ki values were determined from a replot of the Km (app) vs the inhibitor concentration. […] (FIG. 4). […] Compound 54 with a heptamine moiety was the strongest inhibitor. […] As the crystal structure of human β-hexosaminidase B is now avalible,^[43] its complex with 54 was modeled to reveal a narrow hydrophobic cleft in the active site, which is mainly enclosed by the side-chain groups of residues W424, Y450, […], L453 and the backbone of residues K425 and D426 (FIG. 5). The amino group at the terminal site is expected to be largely protonated when binding with the enzyme. It presumably forms a salt bridge with the secondary aglycon binding site of the enzyme.^[44] It appears that the alkyl linkage is long enough to bring the amine end near enough to have hydrogen-bond interactions with the backbone carbonyl of K425 and A447 and a possible ionic interaction with the carboxyl group of D426.
Kinetic analysis of human placenta β-hexosaminidase. Incubations were performed in a total volume of 200 μL. Unless otherwise stated, reaction mixtures contained 100 mM citrate buffer (pH 4.5), various amount of 4-methylumbelliferyl N-acetyl-β-D-glucosaminide, and various amounts of inhibitors with 0.02 mU/well of β-hexosaminidase. After incubation for 15 min at 30° C., the reaction was terminated by the addition of 0.5 M sodium glycine buffer, pH 10.5. Enzyme activity was measured by the release of 4-methylumbelliferone with the excitation wavelength of 360 nm and the emission wavelength of 460 nm.

For series [7], the system named is Japanese encephalitis virus (JEV). As to conditions: earlier work [16]; cited from earlier work.
Series [8] relates to dengue virus serotype 2 (DEN-2). The following applies: earlier work [16]; cited from earlier work.
[9] abbreviates: reaction product at 20 μM, in situ screening.
[10] abbreviates: value in brackets, read-out: α-glucosidase (Ki).

Structures are written as SMILES. Where two headings read alike, the source gives them in different places.

A word on the IC50: it is the point on the concentration scale where inhibition reaches its midpoint. In general, Ki refers to the dissociation constant of the complex between target and ligand, obtained from inhibition or displacement. As usually defined, the inhibition is the drop in the measured response relative to a control, in per cent. The low end stands for a weak effect, the high end for a strong effect. For the compound `CC(=O)NC[C@H]1N[C@H](CO)[C@@H](O)[C@@H]1O` [Compound 5], the IC50 in series [1] was 0.16 µM; against α-glucosidase it was 280 µM; against β-glucosidase, over 500 µM. The “N-acetyl-β-hexosaminidse Inhibition (%)” value in [1] is given as 85%. Moreover, the inhibitory constant (Ki) in [1] (value in brackets, read-out: N-acetyl-β-hexosaminidse (Ki)) is 0.022 µM; in [2] it was 0.024 µM. At α-glucosidase (setting [9]), this compound registered an inhibition at 20 µM of 12%. Also, in the series with β-glucosidase, the “β-glucosidase Inhibition (%)” value was determined as 20%.
As to `O=C(Cc1c[nH]c2ccccc12)NC[C@H]1N[C@H](CO)[C@@H](O)[C@@H]1O` [Compound 20], the “N-acetyl-β-hexosaminidse Inhibition (%)” value in series [1] turned out to be 29%. Further, the “inhibition of JEV infection” value in series [3] is given as “no inhibition”. On α-glucosidase, this compound showed an IC50 of 1.2 µM. In addition, the “α-glucosidase Inhibition (%)” value at α-glucosidase (setting [9]) is 85%. For the same compound, the Ki on α-glucosidase (setting [10]) amounted to 0.43 µM. For the same compound, at β-glucosidase, the 50% inhibitory concentration (IC50) was found to be 130 µM and the “β-glucosidase Inhibition (%)” value was 23%. Besides, the “inhibition of DEN-2 infection” value in series [4] was “no inhibition”.
As to `O=C(/C=C/c1c[nH]c2ccccc12)NC[C@H]1N[C@H](CO)[C@@H](O)[C@@H]1O` [Compound 22], in series [1], the 50% inhibitory concentration (IC50) came out at 63 µM and the “N-acetyl-β-hexosaminidse Inhibition (%)” value worked out at 16%. Moreover, in series [3], the “inhibition of JEV infection” value is reported as “no inhibition”. On α-glucosidase, this compound displayed a concentration for half-maximal inhibition (IC50) of 0.81 µM. Moreover, the “α-glucosidase Inhibition (%)” value on α-glucosidase (setting [9]) is given as 42%. On β-glucosidase, the midpoint of inhibition, the IC50, lay at 260 µM and the “β-glucosidase Inhibition (%)” value turned out to be 34%. Besides, in series [4], the “inhibition of DEN-2 infection” value was “no inhibition”.
As for `O=C(NC[C@H]1N[C@H](CO)[C@@H](O)[C@@H]1O)C1Cc2ccccc21` (some centres unmarked) [Compound 24], the concentration for half-maximal inhibition (IC50) in series [1] is 11 µM; on α-glucosidase, 0.15 µM; at β-glucosidase it was 92 µM. Further, the “N-acetyl-β-hexosaminidse Inhibition (%)” value in [1] is on record as 9%. Also, the “inhibition of JEV infection” value in series [3] was “no inhibition”. Further, the “selectivity for α- over β-glucosidase” value on α-glucosidase stood at 600 fold. The “α-glucosidase Inhibition (%)” value on α-glucosidase (setting [9]) came to 93%. For the same compound, the Ki turned out to be 0.053 µM at α-glucosidase (text b9, read-out: Ki, α-glucosidase); 0.053 µM at α-glucosidase (text b34, read-out: Ki against yeast α-glucosidase); 0.053 µM on α-glucosidase (setting [10]). Also, the “increase in activity compared to parent core 4” value on α-glucosidase (α-glucosidase) is recorded as 100 fold. For the same compound, the “β-glucosidase Inhibition (%)” value with β-glucosidase is 45%. In addition, the “inhibition of DEN-2 infection” value in series [4] is “no inhibition”.
The IC90 is the concentration needed for an effect of 90%. `CCCCCCCCCCN1C(CO)C(O)C(O)C1CNC(=O)C1Cc2ccccc21` (centres unmarked) [Compound 37]: the IC50 in the series with SARS-CoV was 3.3 to 10 µM; in series [3] it was 9.6 ± 0.8 µM; in series [4], 4.7 µM. The concentration for an effect of 90% (IC90) came to 18 ± 0.2 µM in series [3] and 9.2 µM in series [4].
Regarding `CCCCCCCCCCCCN1C(CO)C(O)C(O)C1CNC(=O)C1Cc2ccccc21` (centres unmarked) [Compound 38], the IC50 was 7.6 ± 0.1 µM in series [3] and 6 ± 0.5 µM in [4]. Further, the 90% effect concentration (IC90) in series [3] worked out at 9.7 ± 0.1 µM; in [4] it was 9.1 ± 0.3 µM. In the series on BHK-21 cells, the “cytotoxicity (XTT assay, cell proliferation)” value was “low level of cytotoxicity”.
For `CC(=O)NC[C@@H]1[C@@H](O)[C@H](O)[C@@H](CO)N1C` [Compound 42, (2R,3R,4R,5R)—N-methyl-2-(acetamido-methyl)-3,4-dihydroxy-5-(hydroxymethyl)pyrrolidine], the Ki in series [2] is 0.024 µM. For the same compound, the “effect on glycosaminoglycans (GAGs)” value in [5] was “accumulation of glycosaminoglycans (GAGs) in the cell-associated fraction and a decrease in the release of GAGs into the culture supernatant”.
Consider `CC(=O)NCC1C(O)C(O)C(CO)N1CCCCCCCN` (centres unmarked) [Compound 54], for which, in series [6], the inhibition constant (Ki) came out at 0.0026 µM.
Consider `CC(=O)NCC1C(O)C(O)C(CO)N1CCOCCOCCN` (centres unmarked) [Compound 56], for which the Ki in series [6] amounted to 0.06 µM.
Still for that read-out and setting: under `CCCCCCN1C(CO)C(O)C(O)C1CNC(C)=O` (centres unmarked) [Compound 57] stands 0.18 µM.
Consider `CCCCCCCN1C(CO)C(O)C(O)C1CNC(C)=O` (centres unmarked) [Compound 58], for which, in series [6], the Ki came to 0.25 µM.
Still for that read-out and setting: under `CCCCCCCCN1C(CO)C(O)C(O)C1CNC(C)=O` (centres unmarked) [Compound 59] stands 0.16 µM.
`CCCCCCCCCN1C[C@H](O)[C@@H](O)[C@@H](O)[C@H]1CO` [NN-DGJ, N-nonyldeoxygalactonojirimycin]: in series [7], the “inhibition of JEV” value was “did not inhibit”. In addition, the “inhibition of DEN-2” value in series [8] was “did not inhibit”.
